From patent US8901037B2, “Composition having a germination-preventing activity, processes for obtaining said compositions and use thereof” (Isagro S.p.A., priority 2006, dated 2014)

Columns and labels:
weeds = test: germination-preventing action in treated soil; type: in vivo; conditions: minimum amounts of 4 g per square meter of soil
[1] = cited from earlier work

## C=CCN=C=S [allyl isothiocyanate, Allyl isothiocyanate]
weeds
  germination-preventing action: marked germination-preventing action
[1]
  vapour pressure at 25° C.: 5 mmHg

## CN=C=S [methyl isothiocyanate, reference compound]
[1]
  vapour pressure at 25° C.: 19 mmHg
